Our source for the GI50 and IC50 values is patent US12686673B2 (Blueprint Medicines Corporation, priority 2020, dated 2026).

Counter-ions that a name gives are not always drawn. Like-named read-outs stand apart in the source and are kept apart here.

Assay type in all cases: cell-based
In assay [1] the target is EGFR(D770_N771insSVD) expressing Ba/F3 stable cell line (Homo sapiens, UniProt P00533, DUP768-770, cells depend on it). Briefly: Cellular proliferation (Alamar Blue) assay, EGFR D770_N771insSVD Ba/F3. The following applies: 72 hr, read-out: D770 IC50. As for the experimental part: (§1) • 1. EGFR(D770_N771insSVD) expressing Ba/F3 stable cell line • 2. EGFR (A767_dupASV) expressing Ba/F3 stable cell line • 3. A431 cells • 4. EGFR (H773insNPH) expressing Ba/F3 stable cell line • 5. HER2 (A775_G776insYVMA) expressing Ba/F3 stable cell line Assay Procedure: • 1. Seed cells at 5000 for A431 and 15,000 cells for Ba/F3 in 100 μL/well in complete media (for A431: DMEM with […] and for Ba/F3 cells: RPMI with 10% FBS) in 96-well tissue culture plate. Leave outer wells without cells for background measurements. Incubate at 37 degree Celsius in […] humidified incubator for 16-18 hours. • 2. Add 0.025 ml of 5× concentration compound dilution or DMSO control. Final compound concentration range is 10-0.0005 μM prepared in 3-fold serial dilutions. Incubate for 72 hr at 37 degree Celsius in […] humidified incubator. • 3. Add 0.0125 ml Alamar Blue™ reagent to each well with multi-channel pipette and tap gently on each side of the plate to mix. Incubate for 3 hours at 37 degree Celsius in 5% CO2 humidified incubator. • 4. […] Data analysis was performed using XLfit 5.5.0.5.

Assay [2] deals with EGFR (A767_dupASV) expressing Ba/F3 stable cell line (Homo sapiens, UniProt P00533, DUP767-769, cells depend on it). The assay is described as follows: Cellular proliferation (Alamar Blue) assay, EGFR A767_dupASV Ba/F3. The settings on record: 72 hr, read-out: A767 IC50. The procedure:
as §1

In another assay the test system is A431 cells. The assay is described as follows: Cellular proliferation (Alamar Blue) assay, A431. As for the experimental part:
as §1

[3] abbreviates: Homo sapiens, A-431; A431 cells, Alamar Blue, 72 hr; read-out: A431 IC50.
The mark [4] stands for this setting: Homo sapiens, A-431; A431 cells, 72 hr, Alamar Blue; read-out: A431 IC50.

Chain of EGFR (A767_dupASV) expressing Ba/F3 stable cell line (P00533 with tags, fused parts or gaps DUP767-769): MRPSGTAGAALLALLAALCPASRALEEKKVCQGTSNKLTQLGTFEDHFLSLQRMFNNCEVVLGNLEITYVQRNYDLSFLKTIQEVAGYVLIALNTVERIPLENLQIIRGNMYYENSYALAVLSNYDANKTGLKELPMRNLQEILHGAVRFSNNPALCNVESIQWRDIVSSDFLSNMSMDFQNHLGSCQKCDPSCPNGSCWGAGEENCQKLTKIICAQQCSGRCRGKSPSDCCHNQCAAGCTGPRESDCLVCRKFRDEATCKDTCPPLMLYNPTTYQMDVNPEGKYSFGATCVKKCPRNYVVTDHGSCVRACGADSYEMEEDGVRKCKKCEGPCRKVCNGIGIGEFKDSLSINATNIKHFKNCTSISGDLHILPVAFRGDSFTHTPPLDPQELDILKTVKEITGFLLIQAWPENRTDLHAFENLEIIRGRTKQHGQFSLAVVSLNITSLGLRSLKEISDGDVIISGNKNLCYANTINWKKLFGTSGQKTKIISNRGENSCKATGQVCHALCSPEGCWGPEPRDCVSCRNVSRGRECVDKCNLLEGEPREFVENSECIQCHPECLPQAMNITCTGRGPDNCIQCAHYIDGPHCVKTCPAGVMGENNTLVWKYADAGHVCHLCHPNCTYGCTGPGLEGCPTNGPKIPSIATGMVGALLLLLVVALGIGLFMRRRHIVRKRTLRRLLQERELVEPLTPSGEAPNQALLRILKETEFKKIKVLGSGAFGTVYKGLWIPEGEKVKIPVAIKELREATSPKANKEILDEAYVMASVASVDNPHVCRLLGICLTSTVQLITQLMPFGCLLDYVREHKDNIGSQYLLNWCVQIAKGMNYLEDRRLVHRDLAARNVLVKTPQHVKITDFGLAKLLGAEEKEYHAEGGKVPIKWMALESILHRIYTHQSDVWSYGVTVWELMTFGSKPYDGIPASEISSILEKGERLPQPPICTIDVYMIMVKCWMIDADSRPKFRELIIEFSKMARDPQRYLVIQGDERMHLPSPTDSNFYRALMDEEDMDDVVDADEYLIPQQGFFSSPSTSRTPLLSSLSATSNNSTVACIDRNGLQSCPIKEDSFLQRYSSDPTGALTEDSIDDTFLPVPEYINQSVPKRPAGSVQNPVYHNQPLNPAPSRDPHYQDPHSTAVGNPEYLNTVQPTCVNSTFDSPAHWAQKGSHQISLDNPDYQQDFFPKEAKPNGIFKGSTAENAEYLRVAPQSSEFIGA
Chain of EGFR(D770_N771insSVD) expressing Ba/F3 stable cell line (P00533 with tags, fused parts or gaps DUP768-770): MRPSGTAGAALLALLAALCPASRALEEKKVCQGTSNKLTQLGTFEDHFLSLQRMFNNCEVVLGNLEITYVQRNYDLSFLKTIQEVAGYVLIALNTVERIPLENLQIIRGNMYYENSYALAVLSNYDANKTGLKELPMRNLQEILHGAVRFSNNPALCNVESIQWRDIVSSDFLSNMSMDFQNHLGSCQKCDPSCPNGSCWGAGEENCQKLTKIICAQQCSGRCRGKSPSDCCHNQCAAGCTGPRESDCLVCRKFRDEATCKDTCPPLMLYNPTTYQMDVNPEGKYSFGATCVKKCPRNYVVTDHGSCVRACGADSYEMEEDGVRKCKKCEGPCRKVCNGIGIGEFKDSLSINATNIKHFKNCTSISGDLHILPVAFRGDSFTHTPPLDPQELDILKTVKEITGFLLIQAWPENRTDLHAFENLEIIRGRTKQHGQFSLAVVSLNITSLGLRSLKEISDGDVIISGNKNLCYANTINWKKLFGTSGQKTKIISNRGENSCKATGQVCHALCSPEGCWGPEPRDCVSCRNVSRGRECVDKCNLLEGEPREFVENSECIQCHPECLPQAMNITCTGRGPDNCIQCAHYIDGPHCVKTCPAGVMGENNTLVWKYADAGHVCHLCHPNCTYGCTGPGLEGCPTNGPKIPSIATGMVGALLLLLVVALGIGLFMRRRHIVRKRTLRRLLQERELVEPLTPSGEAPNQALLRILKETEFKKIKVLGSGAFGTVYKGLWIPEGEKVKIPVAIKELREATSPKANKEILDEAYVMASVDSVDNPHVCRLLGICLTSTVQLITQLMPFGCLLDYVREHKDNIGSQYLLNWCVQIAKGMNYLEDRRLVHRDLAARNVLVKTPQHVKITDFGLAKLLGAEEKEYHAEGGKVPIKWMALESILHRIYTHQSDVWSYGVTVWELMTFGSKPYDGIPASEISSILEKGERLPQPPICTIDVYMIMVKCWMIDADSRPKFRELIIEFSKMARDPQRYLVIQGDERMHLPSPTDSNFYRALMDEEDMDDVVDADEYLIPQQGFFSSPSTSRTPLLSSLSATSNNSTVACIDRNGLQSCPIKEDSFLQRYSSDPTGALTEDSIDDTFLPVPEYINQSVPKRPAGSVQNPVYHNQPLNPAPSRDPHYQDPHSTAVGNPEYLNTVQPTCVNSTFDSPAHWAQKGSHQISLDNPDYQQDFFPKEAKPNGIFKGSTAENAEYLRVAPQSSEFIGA

As to `C=CC(=O)Nc1ccc(F)c(Nc2nc(Nc3ccc(=O)[nH]c3)ncc2Cl)c1` [Compound 2, N-(3-((5-chloro-2-((6-oxo-1,6-dihydropyridin-3-yl)amino)pyrimidin-4-yl)amino)-4-fluorophenyl)acrylamide], the GI50 in assay [1] is 9.24 µM; in assay [2], over 10 µM. Moreover, the 50% inhibitory concentration (IC50) in the assay with A431 cells (setting [3]) is over 10 µM.

Consider `C=CC(=O)Nc1ccc(F)c(Nc2nc(-n3ccc(N)cc3=O)ncc2Cl)c1` [Compound 3, N-(3-((2-(4-amino-2-oxopyridin-1(2H)-yl)-5-chloropyrimidin-4-yl)amino)-4-fluorophenyl)acrylamide], for which the GI50 in assay [1] and in assay [2] was over 10 µM each time. Besides, the 50% inhibitory concentration (IC50) with A431 cells (setting [3]) is over 10 µM.

Consider `CN(C)C/C=C/C(=O)Nc1ccc(F)c(Nc2nc(Nc3cnn(C)c3)ncc2Cl)c1` [Compound 4, (E)-N-(3-((5-chloro-2-((1-methyl-1H-pyrazol-4-yl)amino)pyrimidin-4-yl)amino)-4-fluorophenyl)-4-(dimethylamino)but-2-enamide], for which the GI50 stood at 3 µM in assay [1] and 1.76 µM in assay [2]. Besides, the concentration for half-maximal inhibition (IC50) in the assay on A431 cells (setting [3]) came to 6.59 µM.

For the molecule `C=CC(=O)Nc1ccc(Nc2nc(Nc3cnn(C)c3)ncc2Cl)c(F)c1` [Compound 10, N-(4-((5-chloro-2-((1-methyl-1H-pyrazol-4-yl)amino)pyrimidin-4-yl)amino)-3-fluorophenyl)acrylamide], the GI50 in assay [1] and in assay [2] was over 10 µM each time. Besides, the 50% inhibitory concentration (IC50) in the assay on A431 cells (setting [3]) was 3.01 µM.

As for `C=CC(=O)Nc1ccc(F)c(N(c2ccccc2)c2nc(Nc3cnn(C)c3)ncc2Cl)c1` [Compound 20, N-(3-((5-chloro-2-((1-methyl-1H-pyrazol-4-yl)amino)pyrimidin-4-yl)(phenyl)amino)-4-fluorophenyl)acrylamide], the GI50 in assay [1] stood at 2.41 µM. In the assay with A431 cells (setting [3]), the IC50 is over 10 µM.

For the molecule `C=CC(=O)Nc1ccc(F)c(Nc2nc(Nc3cc(COC)n(C)n3)ncc2Cl)c1` [Compound 21, N-(3-((5-chloro-2-((5-(methoxymethyl)-1-methyl-1H-pyrazol-3-yl)amino)pyrimidin-4-yl)amino)-4-fluorophenyl)acrylamide], the GI50 in assay [1] was 4.76 µM. Moreover, the IC50 in the assay with A431 cells (setting [3]) was over 10 µM.

`Cc1cc(Nc2ncc(Cl)c(Nc3cc(NC(=O)/C=C/CN(C)C)ccc3F)n2)sn1` [Compound 27, (E)-N-(3-((5-chloro-2-((3-methylisothiazol-5-yl)amino)pyrimidin-4-yl)amino)-4-fluorophenyl)-4-(dimethylamino)but-2-enamide]: the GI50 in assay [1] is 2.62 µM; in assay [2], 1.99 µM. In addition, the IC50 in the assay with A431 cells (setting [3]) was over 10 µM.

Consider `C=CC(=O)Nc1ccc(F)c(Nc2nc(Nc3cccnc3F)ncc2-c2ccc(C(F)(F)F)cc2)c1` [Compound 38, N-(4-fluoro-3-((2-((2-fluoropyridin-3-yl)amino)-5-(4-(trifluoromethyl)phenyl)pyrimidin-4-yl)amino)phenyl)acrylamide], for which the GI50 in assay [1] was determined as 0.36 µM; in assay [2], 0.947 µM. Moreover, the IC50 in the assay on A431 cells (setting [3]) turned out to be 1.36 µM.

In the case of `C=CC(=O)Nc1ccc(F)c(Nc2nc(Nc3ccccc3OC)ncc2-c2ccc(C(F)(F)F)cc2)c1` [Compound 39, N-(4-fluoro-3-((2-((2-methoxyphenyl)amino)-5-(4-(trifluoromethyl)phenyl)pyrimidin-4-yl)amino)phenyl)acrylamide trifluoroacetate], the GI50 in assay [1] was determined as 3.04 µM; in assay [2] it was 8.29 µM. Besides, the half-maximal inhibitory concentration (IC50) with A431 cells (setting [3]) is 2.93 µM.

In the case of `C=CC(=O)Nc1ccc(F)c(Nc2nc(Nc3ccccc3Cl)ncc2-c2ccc(C(F)(F)F)cc2)c1` [Compound 40, N-(3-((2-((2-chlorophenyl)amino)-5-(4-(trifluoromethyl)phenyl)pyrimidin-4-yl)amino)-4-fluorophenyl)acrylamide trifluoroacetate], the GI50 in assay [1] and in assay [2] was over 10 µM each time. Also, the 50% inhibitory concentration (IC50) with A431 cells (setting [3]) worked out at 3.83 µM.

Consider `C=CC(=O)Nc1ccc(F)c(Nc2nc(Nc3csc(Cl)c3)ncc2-c2ccc(C(F)(F)F)cc2)c1` [Compound 41, N-(3-((2-((5-chlorothiophen-3-yl)amino)-5-(4-(trifluoromethyl)phenyl)pyrimidin-4-yl)amino)-4-fluorophenyl)acrylamide trifluoroacetate], for which the values for the GI50 in assay [1] and in assay [2] were 1.66 µM and over 10 µM, respectively. Also, the half-maximal inhibitory concentration (IC50) with A431 cells (setting [3]) worked out at 7.33 µM.

With `C=CC(=O)Nc1ccc(F)c(Nc2nc(NC3CCN(C)CC3)ncc2-c2ccc(C(F)(F)F)cc2)c1` [Compound 42, N-(4-fluoro-3-((2-((1-methylpiperidin-4-yl)amino)-5-(4-(trifluoromethyl)phenyl)pyrimidin-4-yl)amino)phenyl)acrylamide trifluoroacetate], the GI50 in assay [1] and in assay [2] was over 10 µM in each case. In the assay on A431 cells (setting [3]), the concentration for half-maximal inhibition (IC50) amounted to 8.99 µM.

Turning to `C=CC(=O)Nc1ccc(F)c(Nc2nc(NCCN(C)C)ncc2-c2ccc(C(F)(F)F)cc2)c1` [Compound 43, N-(3-((2-((2-(dimethylamino)ethyl)amino)-5-(4-(trifluoromethyl)phenyl)pyrimidin-4-yl)amino)-4-fluorophenyl)acrylamide trifluoroacetate], the GI50 in assay [1] and in assay [2] was over 10 µM in each case. In the assay with A431 cells (setting [3]), the IC50 was determined as 3.67 µM.

For `C=CC(=O)Nc1ccc(F)c(Nc2nc(Nc3ccc(N(C)C)cc3)ncc2-c2ccc(C(F)(F)F)cc2)c1` [Compound 44, N-(3-((2-((4-(dimethylamino)phenyl)amino)-5-(4-(trifluoromethyl)phenyl)pyrimidin-4-yl)amino)-4-fluorophenyl)acrylamide trifluoroacetate], the GI50 in assay [1] and in assay [2] was over 10 µM throughout. Further, in the assay with A431 cells (setting [3]), the IC50 came out at 0.484 µM.

On to `C=CC(=O)Nc1ccc(F)c(Nc2nc(Nc3ccsc3)ncc2-c2ccc(C(F)(F)F)cc2)c1` [Compound 46, N-(4-fluoro-3-((2-(thiophen-3-ylamino)-5-(4-(trifluoromethyl)phenyl)pyrimidin-4-yl)amino)phenyl)acrylamide trifluoroacetate], for which the GI50 in assay [1] was 0.973 µM; in assay [2], 2.74 µM. In addition, in the assay on A431 cells (setting [3]), the IC50 came out at 0.523 µM.

As for `C=CC(=O)Nc1ccc(F)c(Nc2nc(Nc3cnn(C)c3)ncc2C(=O)N(C)c2ccccc2)c1` [Compound 49, 4-((5-acrylamido-2-fluorophenyl)amino)-N-methyl-2-((1-methyl-1H-pyrazol-4-yl)amino)-N-phenylpyrimidine-5-carboxamide], the GI50 turned out to be 8.62 µM in assay [1] and 3.29 µM in assay [2]. In the assay with A431 cells (setting [3]), the IC50 is over 10 µM.

In the case of `C=CC(=O)Nc1ccc(F)c(Nc2nc(Nc3cnn(C)c3)ncc2-c2ccc(NC(C)=O)cc2)c1` [Compound 58, N-(3-((5-(4-acetamidophenyl)-2-((1-methyl-1H-pyrazol-4-yl)amino)pyrimidin-4-yl)amino)-4-fluorophenyl)acrylamide], the GI50 in assay [1] came to 2.89 µM; in assay [2], 2.66 µM. Also, in the assay with A431 cells (setting [3]), the half-maximal inhibitory concentration (IC50) was over 10 µM.

For the molecule `C=CC(=O)Nc1ccc(F)c(Nc2nc(Nc3cnn(C)c3)ncc2-c2ccc(C(=O)NC)cc2)c1` [Compound 64, 4-(4-((5-acrylamido-2-fluorophenyl)amino)-2-((1-methyl-1H-pyrazol-4-yl)amino)pyrimidin-5-yl)-N-methylbenzamide], the GI50 in assay [1] turned out to be 7.87 µM; in assay [2], 3 µM. Moreover, in the assay on A431 cells (setting [3]), the IC50 was over 10 µM.

Regarding `C=CC(=O)Nc1cccc2c1ccn2-c1nc(Nc2cnn(C)c2)ncc1-c1ccc(C(F)(F)F)cc1` [Compound 81, N-(1-(2-((1-methyl-1H-pyrazol-4-yl)amino)-5-(4-(trifluoromethyl)phenyl)pyrimidin-4-yl)-1H-indol-4-yl)acrylamide], the GI50 in assay [1] and in assay [2] was over 10 µM each time.

With `C=CC(=O)Nc1ccc(F)c(Nc2nc(Nc3cnn(C)c3)ncc2-c2ccc(N(C)C)nc2)c1` [Compound 107, N-(3-((5-(6-(dimethylamino)pyridin-3-yl)-2-((1-methyl-1H-pyrazol-4-yl)amino)pyrimidin-4-yl)amino)-4-fluorophenyl)acrylamide], the GI50 in assay [1] and in assay [2] was over 10 µM in each case.

For `C=CC(=O)Nc1ccc(F)c(Nc2nc(Nc3cnn(C)c3)ncc2-c2ccccc2-c2ccccc2)c1` [Compound 263, N-(3-((5-([1,1′-biphenyl]-2-yl)-2-((1-methyl-1H-pyrazol-4-yl)amino)pyrimidin-4-yl)amino)-4-fluorophenyl)acrylamide], the half-inhibitory concentration (IC50) in the assay with A431 cells (setting [4]) amounted to 6.23 µM.

Consider `C=CC(=O)Nc1ccc(F)c(Nc2nc(Nc3cnn(C)c3)ncc2-c2cccc3cc[nH]c23)c1` [Compound 265, N-(3-((5-(1H-indol-7-yl)-2-((1-methyl-1H-pyrazol-4-yl)amino)pyrimidin-4-yl)amino)-4-fluorophenyl)acrylamide], for which, in the assay on A431 cells (setting [4]), the half-maximal inhibitory concentration (IC50) was found to be 4.89 µM.
